{"source": "patent US12156858B2", "about": "“Pharmaceutical compositions comprising levodopa, a dopamine decarboxylase inhibitor and a COMT inhibitor and method of administration thereof” (InTrance Medical Systems Inc., priority 2014, dated 2024)", "origin": "cited, not measured here", "details": "intake of levodopa alone"}
{"smiles": "N[C@@H](Cc1ccc(O)c(O)c1)C(=O)O", "note": "[Levodopa, (−)-L-α-amino-β-(3,4-dihydroxybenzene) propanoic acid]", "values": [{"measurement": "share metabolized to dopamine before levodopa reaches the brain", "value": "more than 90%"}]}
